This note sets out measurements from PMC7070906, “A Near-infrared Turn-on Fluorescent Sensor for Sensitive and Specific Detection of Albumin from Urine Samples” (Sensors (Basel, Switzerland), 2020).

The target of this assay is T1, human serum albumin (HSA) (Homo sapiens, UniProt P02768).
T1 construct: gene ALB
As to the kind of experiment: fluorescence turn-on titration with HSA (one-site fit), Job's plot […], displacement assay. Format: binding.

SMILES strings stand for the structures.

T1 sequence (P02768 25-609): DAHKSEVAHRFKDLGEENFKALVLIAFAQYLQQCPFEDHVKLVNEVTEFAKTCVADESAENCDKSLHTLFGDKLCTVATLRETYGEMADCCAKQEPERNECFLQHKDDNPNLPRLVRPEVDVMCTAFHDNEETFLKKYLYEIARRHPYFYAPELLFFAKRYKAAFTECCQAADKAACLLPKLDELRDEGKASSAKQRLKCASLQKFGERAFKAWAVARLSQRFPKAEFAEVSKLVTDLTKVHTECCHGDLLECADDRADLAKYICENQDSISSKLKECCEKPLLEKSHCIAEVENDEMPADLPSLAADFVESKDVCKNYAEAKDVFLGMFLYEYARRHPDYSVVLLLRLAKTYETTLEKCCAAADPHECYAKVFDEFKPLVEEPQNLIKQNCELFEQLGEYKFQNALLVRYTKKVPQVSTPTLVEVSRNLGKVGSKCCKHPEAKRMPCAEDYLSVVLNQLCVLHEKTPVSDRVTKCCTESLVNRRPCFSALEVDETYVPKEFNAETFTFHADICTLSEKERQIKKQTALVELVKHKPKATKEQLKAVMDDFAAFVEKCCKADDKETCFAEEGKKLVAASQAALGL

By Kd is commonly meant a measure of binding affinity in units of concentration. Turning to `CN(C)c1ccc(/C=C/C=C/C=C(\C#N)C(=O)c2cccc(Cl)c2)s1` [compound 5, (2E,4E,6E)-2-(3-chlorobenzoyl)-7-(5-(dimethylamino)thiophen-2-yl)hepta-2,4,6-trienenitrile], the Kd stood at 15.4 ± 3.3 µM.
